4 molecules from patent US20100285990A1, “NEURITE OUTGROWTH AS AN ASSAY FOR MEMORY ENHANCING COMPOUNDS” (priority 2007, published 2010) can be followed below.

Data set [1] has as its system mouse hippocampal neurons. The data set is described as follows: Neurite outgrowth assay in mouse hippocampal neurons. It is filed as cell-based. The method, then:
Mouse hippocampal neurons were cultured for three days and then treated with HT-2175 or Rolipram for 24 hours. […] MEAN+/−SEM of eight experimental replicate wells (each measuring neurite length of at least 100 neurons) is shown. […] Mice were treated with HT-2175 or vehicle and then trained in contextual conditioning.
Cryo-preserved NS 1 neurons were purchased from the University of Ottawa. Neurons were cultured on poly-D-lysine coated 96 well plates in serum free Neurobasal medium supplemented with 2% B27, 500 μM L-glutamine, and 1 mM pyruvate. Plating density was 20,000 neurons per well. For neurite outgrowth assays, neurons were cultured for 2-3 days and then treated for 24 hours with Rolipram, HT-2175, or HT-2157, respectively.

Data set [2] relates to mice. The data set is described as follows: Contextual fear conditioning (freezing behavior) for long term memory. It is filed as in vivo, mouse. Here is the method: Young-adult (10-12 weeks old) C57BL16 male mice (Taconic, N.Y.) were used for biochemistry and behavioral experiments. Upon arrival, mice were group-housed (5 mice) in standard laboratory cages and maintained on a 12:12 hours light-dark cycle. The experiments were always conducted during the light phase of the cycle. The day before the initiation of the experiment, mice were single housed in individual cages and maintained so till the end of the experiment. With the exception of training and testing times, the mice had ad lib access to food and water.
To assess contextual memory, a standardized contextual fear conditioning task (Bourtchuladze, et al., Cell 79(1):59-68 (1994)) was used. On the training day, the mouse was placed into the conditioning chamber (Med Associates, Inc., VA) for 2 minutes before the onset of the unconditioned stimulus (US), a 0.5 mA foot shock of 2 seconds duration. The US was repeated with a 1 minute inter-trial interval between shocks. After the last training trial, the mice were left in the conditioning chamber for another 30 sec and were then placed back in their home cage. Memory retention was tested one or four days after training. Results were identical for both time points. The mouse was placed into the same training chamber and conditioning was assessed by scoring freezing behavior, as defined by the complete lack of movement. Total testing time lasted 3 minutes. The proceeding of each experiment was filmed. After each experimental subject, the experimental apparatus was thoroughly cleaned with 75% ethanol, water, dried, and ventilated.
Mice were trained with one, two, five or ten trials of contextual conditioning. Four days later contextual memory was tested by scoring freezing behavior. […] Next, mice received weak training (two trials) to induce submaximal memory, or strong training (five trials) to induce maximum memory. Directly after training, the CREB enhancer Rolipram or vehicle was injected into the hippocampus. Contextual memory was tested by scoring freezing behavior four days after training.
For intrahippocampal Rolipram injection or Gpr12 siRNA treatment, mice were anesthetized with 20 mg/kg Avertin and implanted with a 33-gauge guide cannula bilateraly into the dorsal hippocampus (coordinates: A=−1.8 mm, L=+/−1.5 mm to a depth of 1.2 mm) (Franklin and Paxinos, 1997). Five to nine days after recovery from surgery, animals were injected with drug or vehicle control. […]
To assess contextual memory, a standardized contextual fear conditioning task (Bourtchuladze, et al, Cell 79(1):59-68 (1994)) was used. […] The mouse was placed into the same training chamber and conditioning was assessed by scoring freezing behavior, as defined by the complete lack of movement. […]

Data set [3] concerns NS1 cells. The data set is described as follows: Neurite outgrowth assay in Neuroscreen 1 (NS1) cells. The format is cell-based. Conditions: for number of branch points: FIG. 5B. Here is the method:
The effect of CREB enhancers on neurite outgrowth in NS1 cells was assayed. On-target siRNAs (Dharmacon Inc., Lafayette, USA) were used for in vitro testing (neurite outgrowth in NS 1 cells). Neuroscreen 1 (NS1) cells (Cellomics Inc.) were transfected according to the manufactures specification using Dharmafect 3.
Neuroscreen 1 (NS1) cells were cultured on collagen type I coated 75 cm^2 plastic flasks (Biocoat, Becton Dickinson) in a humidified incubator at 37° C. in 5% CO2. Cells were cultured in RPMI complete cell culture medium (Cambrex) supplemented with 10% heat-inactivated horse serum (Invitrogen), 5% heat-inactivated fetal bovine serum (Cellgro), and 2 mM L-glutamine (Cambrex). For expansion, the cells were trypsinized and split at 80% confluence. The cell culture media was changed every 2 to 3 days.
NS1 cells were harvested as if they were being passaged and then counted using a Coulter counter (Becton Dickinson Coulter Z1). Cells were seeded in 96-well collagen I coated plates at a density of 2000 cells per well in volume of 200 μl. RPMI media was supplemented with 200 ng/ml nerve growth factor (NGFβ, Sigma). NS 1 cells were incubated for 72 hours to allow differentiation to a neuronal phenotype. NGFβ was then diluted to 50 ng/ml and the cells were treated with siRNA or compound at the indicated doses, respectively.
Neurite outgrowth assays were performed using the Cellomics Arrayscan II Vti HCS scanner. Cells were stained using the HitKit™ HCS reagent kit (Cellomics) according to the manufactures specifications. The assay is based on immunoflourescence using an antibody that has been validated to specifically label both neurites and neuronal cell bodies. Briefly, cells were fixed in 3.7% formaldehyde and nuclei stained with Hoechst dye. Cells were then washed in neurite outgrowth buffer and neurites stained with Cellomics' proprietary primary antibody for neurite outgrowth high content screening. After 1 hour of incubation with the primary antibody, the cells were washed again and then incubated with fluorescently labeled secondary antibody solution for 1 hour. Antibody-stained 96-well plates were store at 4° C. in the dark until scanning. Plates were scanned using Cellomics ArrayScan II Vti HCS scanner. The neurite outgrowth assay uses two channels to carry out the scan. Channel 1 detects the Hoechst Dye and is used by the software to identify cells and for automated focusing. Channel 2 detects the FITC fluorescence of the secondary antibody and is used by the software to calculate all data generated in reference to neurites.

In data set [4] the test system is CREB pathway. The experiment in a line: CRE-luciferase reporter assay of CREB activation in Neuro2A cells. It is filed as cell-based. The following applies: p<0.001. From the text:
CREB activity assays were constructed. Neuro2A cells were transfected with a CREB expressing or control vectors using standard molecular biology techniques. CRE-luciferase activity was monitored in the presence or absence of Forskolin ([…]). CREB over-expression led to an increase in the activation of the CRE-reporter construct (n=3 per group, * indicates p<0.05). CRE-luciferase reporter thus measures activation of the CREB pathway. In FIG. 1B, the effect of Rolipram on CREB-activation is shown. Neuro2A cells were treated with the PDE4 inhibitor Rolipram and CREB activation monitored via CRE-liciferase activation.
The effect of Rolipram on CREB-activation was assayed in the presence of 0.5 μM Forskolin. Neuro2A cells were treated with the PDE4 inhibitor Rolipram and CREB activation monitored via CRE-liciferase activation in the presence of 0.5 μM Forskolin.

Setting [5] is: siRNA treatment 48 hours, compared to vehicle alone.

For `O=C1C(=Nc2cccc(C(F)(F)F)c2)c2ccccc2N1c1ccccc1` [HT-2157], the “number of branch points” value in data set [1] (mouse hippocampal neurons, FIG. 6C) was “dose-dependently facilitates neurite outgrowth”. In data set [2] (contextual fear conditioning with two trials, FIG. 6D), the contextual memory result was “dose dependently facilitates contextual memory”. In addition, the “total neurite length per cell” value in data set [3] (FIG. 6A) is reported as “facilitates neurite outgrowth”. For the same molecule, the “number of branch points per dendrite” value in data set [3] (FIG. 6B) is “facilitates neurite outgrowth”.
Take `COc1ccc(C2CNC(=O)C2)cc1OC1CCCC1` (centres unmarked) [Rolipram]: in data set [1] (neurons cultured three days, treated 24 hours, FIG. 4A), the “branch points per neurite” value is “facilitate neurite outgrowth”. The “contextual memory (freezing behavior)” value is on record as “has no effect on maximal memory” in data set [2] (strong training (five trials), injected into the hippocampus directly after training, tested four days after training) and “dose-dependently facilitates submaximal contextual memory” in data set [2] (weak training (two trials), injected into the hippocampus directly after training, tested four days after training). In addition, the neurite branch points result in data set [3] (increasing doses in the presence of 5 μM Forskolin) is “dose dependently increase neurite outgrowth”. For the same molecule, the neurite length result in data set [3] (increasing doses in the presence of 5 μM Forskolin, FIG. 3B) is listed as “dose dependently increase neurite outgrowth”. Besides, the “CREB activation monitored via CRE-luciferase activation” value in data set [4] (FIG. 1B, n=8 per group) is given as “activates CREB-dependent transcription”; in data set [4] (in the presence of 0.5 μM Forskolin), “activates CREB-dependent transcription”.
With “Gpr12 siRNA: siRNA against Gpr12; sense GAGGCACGCCCAUC AGAUAUU (SEQ ID NO: 1), anti-sense UAUCUGAUGGGCGUGCCUCUU (SEQ ID NO: 2) (sense GAGGCACGCCCAUCAGAUAUU; chemically modified siSTABLE siRNA, pattern not given here)”, the “contextual memory (freezing behavior)” value in data set [2] (siRNA injected repeatedly into hippocampus, weak training (two trials), tested 24 hours later, FIG. 5C) is listed as “facilitates contextual memory”. The “number of branch points” value in data set [3] (siRNA treatment 48 hours) was “significantly enhanced neurite outgrowth”. The neurite length entry in data set [3] (setting [5]) is on record as “significantly enhanced neurite outgrowth”.
“non-targeting control siRNA: 21mer non-targeting siRNA used as control; SEQ ID NO: 3 and 4 (chain 1 UAGCGACUAAACACAUCAAUU; chain 2 UUGAUGUGUUUAGUCGCUAUU; chemically modified siSTABLE siRNA, pattern not given here)”: the “number of branch points” value in data set [3] (siRNA treatment 48 hours) is “had no effect on branch points”. Moreover, the neurite length result in data set [3] (setting [5]) is “had no effect on neurite outgrowth”; in data set [3] (siRNA treatment 48 hours, compared to vehicle alone, listed as Non-targeting control siRNA) it was “had no effect on neurite length”.
